pIC50: −log10 of the molar value. Where two headings read alike, the source gives them in different places.
Experiments:
PI3Kα = PI3Kα (Homo sapiens (Human), UniProt P42336); test: Inhibition of PI3Kα efficacy assay (ADP-Glo kinase assay); assay type: biochemical; conditions: read-out: PI3Kα inhibitory activity (IC50)
Method in brief: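 Eight five-fold dilutions of compound (2 mM DMSO stock) tested; kinase reaction with PI and ATP ran 60 min at RT, followed by ADP-Glo and detection reagent steps of 40 min each. Four-parameter logistic fitting gave IC50 values.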

[1] = test system: NCI-H358 cells (KRAS G12C mutant); test: NCI-H358 cell proliferation inhibition (CellTiter-Glo); assay type: cell-based; conditions: Homo sapiens, NCI-H358, 72 h; H358 cells (G12C mutation), 3 days, Table 6; read-out: NCI-H358 (IC50)
[2] = test system: MIA PaCa-2 cells (KRAS G12C mutant); test: MIA PaCa-2 cell anti-proliferation (CellTiter-Glo); assay type: cell-based; conditions: Homo sapiens, 72 h; MIA Paca-2 cells, 3 days, Table 7; read-out: MIA PaCa-2 (IC50)
Method in brief: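 Viable-cell luminescence (CellTiter-Glo, ≥30 min at 25 °C) measured after a 3-day, 37 °C exposure to compounds at 9 points, 4-fold spaced, in DMEM containing 10% FBS plus 2.5% horse serum. IC50 derived versus no-inhibitor wells.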

[3] = test system: NCI-H358-AMGR drug-resistant cell line; test: NCI-H358-AMGR drug-resistant cell proliferation inhibitory activity test; assay type: cell-based; conditions: 72 h; NCI-H358-AMGR drug-resistant cells, 3 days incubation, CellTiter-Glo
Procedure: Test Example 6t Generation of NCI-H358-AMGR Drug-Resistant Cell Line
(§1) NCI-H358 cells were seeded and cultured at 50 to 70% confluence in six-well plate with RPMI-640 (10% FBS) medium at 37° C. with 5%4 CO2. AMG510 was added for induction at three starting concentrations of 1 nM, 10 nM and 50 nM, and the medium containing the same concentration of AMG510 was replaced every 3 days. Cells were passaged once they reached confluence. After every, two passages at a given concentration of drug, the concentration was increased in a 3-old increment until final concentrations of 1 μM for AMG510 was achieved.
(§2) NCI-H358-AMGR cells in logarithmic growth phase were collected and seeded into a clear-bottom 96-well plate at a density of 4×10^3 cells per well in 80 μL of medium, and then incubated overnight at 37° C. with 5% CO2. The compounds were serially diluted 5-fold in DMSO to obtain 8 concentrations, and then further diluted with RPMI-640) (10% FBS) cell culture medium to obtain the working solutions (5×), 20 μL of each working solution was added to the cell culture supernatant in each well, and the plate was further incubated for 3 days at 37° C. with 5% CO2. The plate was then equilibrated with CellTiter-Glo® reagent at room temperature (25° C.) for 10-30 minutes. After aspirating 50 μL of the medium, 50 μL of CellTiter-Glo®, reagent was added. The cells were thoroughly mixed with the CellTiter-Glo®, reagent using a microplate shaker for 2 minutes, and then incubated at room temperature for 10 minutes. The %-well plate was placed in a multi-mode microplate reader to record the luminescence values (RLU).
(§3) The inhibitory rate was calculated using the following formula: […]
Data were analyzed using GraphPad Prism for IC50 values (Note: The negative control refers to the group without inhibitor).

[4] = test system: MIA PaCa-2-AMGR drug-resistant cell line; test: MIA PaCa-2-AMGR drug-resistant cell proliferation inhibitory activity test; assay type: cell-based; conditions: 72 h, MIA PaCa-2-AMGR drug-resistant cells, 3 days incubation, CellTiter-Glo
Procedure: Test Example 7: Generation of MIA PaCa-2-AMGR drug-resistant cell line
as §1, with “MIA PaCa-2” for “NCI-H358”, “DMEM” for “RPMI-640”, “FBS+2.5% horse serum)” for “FBS)”, “5%” for “5%4”, “every” for “every,”, “3-fold” for “3-old”
as §2, with “MIA PaCa-2-AMGR” for “NCI-H358-AMGR”, “DMEM” for “RPMI-640)”, “FBS+2.5% horse serum)” for “FBS)”, “CellTiter-Glo®” for “CellTiter-Glo®,”, “96-well” for “%-well”
as §3
Data were analyzed using GraphPad Prism for IC50 values (Note: The negative control refers to the group without inhibitor) The data were presented m Table 9

PI3Kδ = PI3Kδ (Homo sapiens (Human), UniProt O00329); test: Inhibition of PI3Kδ efficacy assay (ADP-Glo kinase assay); assay type: biochemical; conditions: Table 4; read-out: PI3Kδ inhibitory activity (IC50)
Sequence of PI3Kδ (O00329 whole entry): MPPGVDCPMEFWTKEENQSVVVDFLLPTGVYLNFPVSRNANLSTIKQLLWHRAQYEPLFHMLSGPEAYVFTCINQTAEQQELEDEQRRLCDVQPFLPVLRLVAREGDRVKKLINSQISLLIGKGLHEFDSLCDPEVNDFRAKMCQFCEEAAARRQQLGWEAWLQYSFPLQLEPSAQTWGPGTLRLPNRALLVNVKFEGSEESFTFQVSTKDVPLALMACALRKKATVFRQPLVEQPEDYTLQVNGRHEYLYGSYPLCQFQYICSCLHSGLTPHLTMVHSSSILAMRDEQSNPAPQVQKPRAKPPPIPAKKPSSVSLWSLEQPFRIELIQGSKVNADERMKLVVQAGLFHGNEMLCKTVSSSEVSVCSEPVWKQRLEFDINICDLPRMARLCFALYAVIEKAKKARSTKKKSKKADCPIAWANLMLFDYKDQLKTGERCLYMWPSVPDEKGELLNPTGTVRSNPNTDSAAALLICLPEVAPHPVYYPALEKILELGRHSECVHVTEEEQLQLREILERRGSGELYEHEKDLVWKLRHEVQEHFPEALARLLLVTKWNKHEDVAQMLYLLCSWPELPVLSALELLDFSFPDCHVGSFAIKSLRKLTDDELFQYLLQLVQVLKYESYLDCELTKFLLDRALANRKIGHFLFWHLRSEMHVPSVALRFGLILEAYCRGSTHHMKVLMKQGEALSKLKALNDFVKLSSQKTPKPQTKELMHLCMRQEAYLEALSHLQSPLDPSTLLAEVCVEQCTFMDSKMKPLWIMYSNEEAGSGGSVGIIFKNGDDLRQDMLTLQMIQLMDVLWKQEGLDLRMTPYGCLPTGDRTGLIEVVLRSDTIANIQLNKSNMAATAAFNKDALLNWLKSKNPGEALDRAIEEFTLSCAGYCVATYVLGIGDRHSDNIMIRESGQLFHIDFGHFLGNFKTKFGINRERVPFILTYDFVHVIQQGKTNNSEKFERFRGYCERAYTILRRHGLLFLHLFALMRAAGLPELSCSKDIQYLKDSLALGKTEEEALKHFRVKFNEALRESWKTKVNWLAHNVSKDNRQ
Sequence of PI3Kδ (P27986 whole entry partner): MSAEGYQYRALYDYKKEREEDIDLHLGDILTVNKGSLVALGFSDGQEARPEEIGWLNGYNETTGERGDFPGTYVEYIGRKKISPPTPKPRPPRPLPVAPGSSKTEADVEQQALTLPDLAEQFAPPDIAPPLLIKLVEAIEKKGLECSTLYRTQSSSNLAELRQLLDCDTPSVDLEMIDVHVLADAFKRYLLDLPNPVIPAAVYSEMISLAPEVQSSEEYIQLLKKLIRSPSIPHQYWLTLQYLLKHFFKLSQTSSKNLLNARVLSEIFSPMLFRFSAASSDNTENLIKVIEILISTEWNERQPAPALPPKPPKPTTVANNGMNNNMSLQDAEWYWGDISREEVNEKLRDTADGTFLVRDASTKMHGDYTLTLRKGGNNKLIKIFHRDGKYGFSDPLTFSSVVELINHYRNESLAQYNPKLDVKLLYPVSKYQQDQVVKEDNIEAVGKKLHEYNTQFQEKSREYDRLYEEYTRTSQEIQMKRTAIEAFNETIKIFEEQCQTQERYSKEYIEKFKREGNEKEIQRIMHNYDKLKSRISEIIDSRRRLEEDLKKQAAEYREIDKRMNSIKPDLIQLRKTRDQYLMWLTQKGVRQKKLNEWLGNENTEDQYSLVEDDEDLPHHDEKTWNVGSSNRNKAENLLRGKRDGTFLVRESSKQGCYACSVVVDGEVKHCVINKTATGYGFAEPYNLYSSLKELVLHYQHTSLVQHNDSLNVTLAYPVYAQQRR
Method in brief: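 Luminescent ADP-Glo readout of PI3Kδ: after a 60 min RT reaction with PI/ATP substrate, ATP depletion (40 min) and ADP detection (40 min) steps followed. Compounds tested as eight five-fold serial dilutions; inhibition rates fitted to log(inhibitor) vs. response, variable slope, for IC50.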

KRAS^G12C-SOS1 = KRAS^G12C-SOS1 (Homo sapiens (Human), UniProt P01116, G12C); test: HTRF KRAS G12C/SOS1 binding assay; conditions: Table 5
Sequence of KRAS^G12C-SOS1 (P01116-2 other isoform, or with tags, fused parts or gaps G12C): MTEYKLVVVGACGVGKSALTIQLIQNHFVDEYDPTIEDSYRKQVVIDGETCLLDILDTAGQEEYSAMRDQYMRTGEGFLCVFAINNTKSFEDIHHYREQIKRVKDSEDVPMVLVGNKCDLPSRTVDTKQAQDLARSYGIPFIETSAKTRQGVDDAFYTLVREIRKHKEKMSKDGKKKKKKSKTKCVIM
Procedure: Initially, a 2 mM stock solution of the test compound (dissolved in DMSO) was serially diluted in five-fold concentrations using DMSO to obtain eight working solutions 1 (200×). Subsequently, each of the eight working solutions 1 was further diluted in a 20-fold gradient by adding 5 μL into 95 μL of Diluent buffer, mixed completely with vortex mixer, resulting in eight working solutions 2 (10×). […] Subsequently, 5 μL of Anti-tag 1-Tb^3+ stock solution and 5 μL of Anti-tag2-XL665 were added to each well, mixed, and incubated at 4° C. for 3 hours. Remove the plate and read on an HTRF® compatible reader, with the excitation light wavelength set at 337 nm and readings recorded at 620 nm and 665 nm. The data results were presented as the ratio of the 665 nm signal value to the 620 nm signal value for each well, calculated as follows: […]. The inhibition rate was calculated using the following formula: […]
Data were analyzed using GraphPad Prism with log (inhibitor) vs. response-Variable Slope (four parameters) fitting calculations for IC50 values.

Sequence of PI3Kα (P42336 whole entry): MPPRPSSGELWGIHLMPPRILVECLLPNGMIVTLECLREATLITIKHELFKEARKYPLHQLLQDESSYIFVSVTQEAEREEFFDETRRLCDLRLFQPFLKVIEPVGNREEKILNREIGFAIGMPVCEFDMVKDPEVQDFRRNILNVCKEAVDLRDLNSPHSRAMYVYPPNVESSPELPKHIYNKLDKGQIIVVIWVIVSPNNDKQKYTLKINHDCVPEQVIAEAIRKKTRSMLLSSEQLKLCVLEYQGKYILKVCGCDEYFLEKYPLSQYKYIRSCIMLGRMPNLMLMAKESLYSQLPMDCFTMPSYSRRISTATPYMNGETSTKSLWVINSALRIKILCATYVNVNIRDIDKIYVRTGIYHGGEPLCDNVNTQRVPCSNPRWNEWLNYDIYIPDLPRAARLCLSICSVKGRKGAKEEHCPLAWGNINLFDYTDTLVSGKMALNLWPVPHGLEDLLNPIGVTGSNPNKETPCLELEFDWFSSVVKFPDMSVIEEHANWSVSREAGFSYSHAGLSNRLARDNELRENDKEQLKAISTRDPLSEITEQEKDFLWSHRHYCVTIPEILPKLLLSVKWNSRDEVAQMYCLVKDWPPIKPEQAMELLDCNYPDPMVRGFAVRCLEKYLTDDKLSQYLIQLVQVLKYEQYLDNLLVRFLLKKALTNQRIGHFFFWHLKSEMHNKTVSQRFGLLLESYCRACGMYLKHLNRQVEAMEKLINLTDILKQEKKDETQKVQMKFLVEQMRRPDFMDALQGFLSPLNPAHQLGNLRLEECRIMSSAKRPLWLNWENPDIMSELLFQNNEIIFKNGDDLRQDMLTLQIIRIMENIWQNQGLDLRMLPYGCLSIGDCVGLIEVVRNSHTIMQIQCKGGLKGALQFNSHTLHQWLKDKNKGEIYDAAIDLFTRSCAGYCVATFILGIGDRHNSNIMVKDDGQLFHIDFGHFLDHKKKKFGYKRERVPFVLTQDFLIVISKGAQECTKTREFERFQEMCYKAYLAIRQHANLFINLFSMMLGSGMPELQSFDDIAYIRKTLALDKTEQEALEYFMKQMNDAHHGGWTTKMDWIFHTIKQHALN
Sequence of PI3Kα (P27986 whole entry partner): as the sequence (P27986 whole entry partner) above

C=CC(=O)N1CCN(c2ncnc3ccc(-c4cnc(OC)c(NS(=O)(=O)c5ccc(F)cc5F)c4)cc23)CC1 [Example 1, N-(5-(4-(4-acryloylpiperazin-1-yl)quinazolin-6-yl)-2-methoxypyridin-3-yl)-2,4-difluorobenzenesulfonamide]
pIC50 (PI3Kα; Table 1): 9.59
pIC50 [1]: 7.68
pIC50 [2]: 7.01
pIC50 [3]: 7.57
pIC50 [4]: 7.44

COc1ncc(-c2ccc3ncnc(N4CCN(C(=O)/C=C/C(C)=O)C[C@@H]4C)c3c2)cc1NS(=O)(=O)c1ccc(F)cc1F [Example 8, (S,E)-2,4-difluoro-N-(2-methoxy-5-(4-(2-methyl-4-(4-oxopent-2-enoyl)piperazin-1-yl)quinazolin-6-yl)pyridin-3-yl)benzenesulfonamide]
pIC50 [1]: 7.04
pIC50 [2]: 7.13
pIC50 [3]: 7.09
pIC50 [4]: 6.60

COc1ccc(S(=O)(=O)Nc2cc(-c3ccc4ncnc(N5CCN(C(=O)/C=C/C(C)=O)CC5)c4c3)cnc2OC)c(F)c1 [Example 185, (E)-2-fluoro-4-methoxy-N-(2-methoxy-5-(4-(4-(4-oxopent-2-enoyl)piperazin-1-yl)quinazolin-6-yl)pyridin-3-yl)benzene-sulfonamide]
pIC50 (PI3Kα; Table 4): 8.80
pIC50 [1]: 7.16
pIC50 [2]: 6.98
pIC50 [3]: 6.88
pIC50 [4]: 7.34

COc1ncc(-c2ccc3ncnc(N4CCN(C(=O)/C=C/C(C)=O)CC4)c3c2)cc1NS(=O)(=O)c1c(C)cccc1F [Example 186, (E)-2-fluoro-N-(2-methoxy-5-(4-(4-(4-oxopent-2-enoyl)piperazin-1-yl)quinazolin-6-yl)pyridin-3-yl)-6-methyl-benzene-sulfonamide]
pIC50 (PI3Kα; Table 4): 8.62
pIC50 [1]: 7.60
pIC50 [2]: 7.28
pIC50 [3]: 7.36
pIC50 [4]: 7.50

COc1ncc(-c2ccc3ncnc(N4CCN(C(=O)/C=C/C(C)=O)CC4)c3c2)cc1NS(=O)(=O)c1ccc(F)c2ccccc12 [Example 187, (E)-4-fluoro-N-(2-methoxy-5-(4-(4-(4-oxopent-2-enoyl)piperazin-1-yl)quinazolin-6-yl)pyridin-3-yl)naphthalene-1-sulfonamide]
pIC50 (PI3Kα; Table 4): 8.34
pIC50 [1]: 6.85
pIC50 [2]: 6.76
pIC50 [3]: 6.43
pIC50 [4]: 6.65

COc1ncc(-c2ccc3ncnc(N4[C@H](C)CN(C(=O)/C=C/C(C)=O)C[C@@H]4C)c3c2)cc1NS(=O)(=O)c1ccccc1F [Example 193, N-(5-(4-((2R,6S)-2,6-dimethyl-4-((E)-4-oxopent-2-enoyl)piperazin-1-yl)quinazolin-6-yl)-2-methoxypyridin-3-yl)-2-fluorobenzenesulfonamide]
pIC50 (PI3Kα; Table 4): 8.55
pIC50 [1]: 7.28
pIC50 [2]: 6.94
pIC50 [3]: 7.67
pIC50 [4]: 7.18

COc1ncc(-c2ccc3ncnc(N4CCN(C(=O)/C=C/C(C)=O)CC4)c3n2)cc1NS(=O)(=O)c1cnccc1C [Example 223, (E)-N-(2-methoxy-5-(4-(4-(4-oxopent-2-enoyl)piperazin-1-yl)pyrido[3,2-d]pyrimidin-6-yl)pyridin-3-yl)-4-methyl-pyridine-3-sulfonamide]
pIC50 [1]: 6.87
pIC50 [2]: 7.03
pIC50 [3]: 7.07
pIC50 [4]: 7.20

CC(=O)/C=C/C(=O)N1CCN(c2ncnc3ccc(-c4cnc(OC(F)(F)F)c(NS(=O)(=O)c5ccc(F)cc5F)c4)nc23)CC1 [Example 226, (E)-2,4-difluoro-N-(5-(4-(4-(4-oxopent-2-enoyl)piperazin-1-yl)pyrido[3,2-d]pyrimidin-6-yl)-2-(trifluoro-methoxy)pyridin-3-yl)benzene-sulfonamide]
pIC50 (PI3Kα; Table 4): 8.85
pIC50 [1]: 6.61
pIC50 [2]: 6.45
pIC50 [3]: 6.45
pIC50 [4]: 6.37

COc1ncc(-c2ccc3ncnc(N4CCN(C(=O)/C=C/C(C)=O)CC4)c3n2)cc1NS(=O)(=O)c1c(C)cccc1F [Example 229, (E)-2-fluoro-N-(2-methoxy-5-(4-(4-(4-oxopent-2-enoyl)piperazin-1-yl)pyrido[3,2-d]pyrimidin-6-yl)pyridin-3-yl)-6-methyl-benzene-sulfonamide]
pIC50 (PI3Kα; Table 4): 8.52
pIC50 [1]: 7.62
pIC50 [2]: 7.39
pIC50 [3]: 7.52
pIC50 [4]: 7.50

COc1ncc(-c2ccc3ncnc(C4CCN(C(=O)/C=C/C(C)=O)CC4)c3n2)cc1NS(=O)(=O)c1c(F)cccc1Cl [Example 235, (E)-2-chloro-6-fluoro-N-(2-methoxy-5-(4-(1-(4-oxopent-2-enoyl)piperidin-4-yl)pyrido[3,2-d]pyrimidin-6-yl)pyridin-3-yl)benzenesulfonamide]
pIC50 (PI3Kα; Table 4): 9.52
pIC50 (PI3Kδ): 8.62
pIC50 (KRAS^G12C-SOS1): 6.95

COc1ncc(-c2ccc3ncnc(C4=CCN(C(=O)/C=C/C(C)=O)CC4)c3n2)cc1NS(=O)(=O)c1c(F)cc(F)cc1F [Example 236, (E)-2,4,6-trifluoro-N-(2-methoxy-5-(4-(1-(4-oxopent-2-enoyl)-1,2,3,6-tetrahydropyridin-4-yl)pyrido[3,2-d]pyrimidin-6-yl)pyridin-3-yl)benzenesulfonamide]
pIC50 (PI3Kα; Table 4): 8.77
pIC50 [1]: 7.71
pIC50 [2]: 7.46
pIC50 [3]: 7.35
pIC50 [4]: 7.54

COc1ncc(-c2ccc3ncnc(C4=CCN(C(=O)/C=C/C(C)=O)CC4)c3n2)cc1NS(=O)(=O)c1c(F)cccc1Cl [Example 241, (E)-2-chloro-6-fluoro-N-(2-methoxy-5-(4-(1-(4-oxopent-2-enoyl)-1,2,3,6-tetrahydropyridin-4-yl)pyrido[3,2-d]pyrimidin-6-yl)pyridin-3-yl)benzenesulfonamide]
pIC50 (PI3Kα; Table 4): 9.57
pIC50 (PI3Kδ): 8.53
pIC50 (KRAS^G12C-SOS1): 6.34

From US20250145589A1, “PYRIDINE DERIVATIVE AND USE THEREOF” (SICHUAN HUIYU PHARMACEUTICAL CO., LTD., priority 2021, published 2025)
